Calls of active or inactive are those of the source. The rule behind the calls is not given here.
Legend:
[1] = Prodrug conversion in C57BL/6 mouse assessed as Cmax of (2-(benzo[c][1,2,5]oxadiazol-5-ylmethoxy)-5-chloro-4-((2-fluoro-3'-(3-(4-hydroxypiperidin-1-yl)propoxy)-[1,1'-biphenyl]-3-yl)methoxy)benzyl)-D-serine at 2 mg/kg, iv measured upto 24 hrs by LC-MS/MS analysis; format: ADME, organism-based; conditions: in vivo
CT26 [2] = assay: Antitumor activity against mouse CT26 cells implanted in BALB/c mouse assessed as tumor growth inhibition at 25 mg/kg, ip measured for 18 days; format: functional; conditions: CT26, 432 h, time 18 day, read-out: TGI
[3] = Lipophilicity, log D of the compound at pH 7.4; format: physicochemical; conditions: buffer
[4] = Acute toxicity in mouse assessed as mortality at 1000 mg/kg, po administered as single dose for 14 days; format: organism-based; conditions: in vivo, 336 h, time 14 day
CT26 [5] = assay: Antitumor activity against mouse CT26 cells implanted in BALB/c mouse assessed as increase in percentage of CD8+ cells at 25 mg/kg, ip measured for 20 days; format: functional; conditions: time 20 day
CT26 [6] = assay: Antitumor activity against mouse CT26 cells implanted in BALB/c mouse assessed as reduction in Treg lymphocyte at 25 mg/kg, ip measured for 20 days; format: functional, organism-based; conditions: time 20.0 day
MC-38 [7] = assay: Antitumor activity against mouse MC38 cells implanted in C57BL/6J mouse assessed as tumor growth inhibition at 25 mg/kg, po measured for 20 days; format: functional; conditions: MC-38, 480 h, time 20 day, read-out: TGI
[8] = Prodrug conversion in C57BL/6 mouse assessed as half life of (2-(benzo[c][1,2,5]oxadiazol-5-ylmethoxy)-5-chloro-4-((2-fluoro-3'-(3-(4-hydroxypiperidin-1-yl)propoxy)-[1,1'-biphenyl]-3-yl)methoxy)benzyl)-D-serine at 10 mg/kg, po measured upto 24 hrs by LC-MS/MS analysis; format: ADME, organism-based; conditions: in vivo
MC-38 [9] = assay: Cytotoxicity against mouse MC38 cells assessed as effect on cell viability at 0.07 to 150 uM incubated for 48 hrs by CCK-8 assay; format: functional, cell-based; conditions: dose 0.07-150 µM
[10] = Prodrug conversion in Sprague-Dawley rat assessed as clearance of (2-(benzo[c][1,2,5]oxadiazol-5-ylmethoxy)-5-chloro-4-((2-fluoro-3'-(3-(4-hydroxypiperidin-1-yl)propoxy)-[1,1'-biphenyl]-3-yl)methoxy)benzyl)-D-serine at 9 mg/kg, iv measured upto 24 hrs by LC-MS/MS analysis; format: ADME, organism-based; conditions: in vivo
CT26 [11] = assay: Cytotoxicity against mouse CT26 cells assessed as effect on cell viability at 0.07 to 150 uM incubated for 48 hrs by CCK-8 assay; format: functional, cell-based; conditions: dose 0.07-150 µM
[12] = Prodrug conversion in C57BL/6 mouse assessed as Tmax of (2-(benzo[c][1,2,5]oxadiazol-5-ylmethoxy)-5-chloro-4-((2-fluoro-3'-(3-(4-hydroxypiperidin-1-yl)propoxy)-[1,1'-biphenyl]-3-yl)methoxy)benzyl)-D-serine at 10 mg/kg, po measured upto 24 hrs by LC-MS/MS analysis; format: ADME, organism-based; conditions: in vivo
[13] = Prodrug conversion in C57BL/6 mouse assessed as half life of (2-(benzo[c][1,2,5]oxadiazol-5-ylmethoxy)-5-chloro-4-((2-fluoro-3'-(3-(4-hydroxypiperidin-1-yl)propoxy)-[1,1'-biphenyl]-3-yl)methoxy)benzyl)-D-serine at 2 mg/kg, iv measured upto 24 hrs by LC-MS/MS analysis; format: ADME, organism-based; conditions: in vivo
[14] = Prodrug conversion in Sprague-Dawley rat assessed as oral bioavailability of (2-(benzo[c][1,2,5]oxadiazol-5-ylmethoxy)-5-chloro-4-((2-fluoro-3'-(3-(4-hydroxypiperidin-1-yl)propoxy)-[1,1'-biphenyl]-3-yl)methoxy)benzyl)-D-serine at 45 mg/kg measured upto 24 hrs by LC-MS/MS analysis; format: ADME, organism-based; conditions: in vivo
[15] = Prodrug conversion in Sprague-Dawley rat assessed as half life of (2-(benzo[c][1,2,5]oxadiazol-5-ylmethoxy)-5-chloro-4-((2-fluoro-3'-(3-(4-hydroxypiperidin-1-yl)propoxy)-[1,1'-biphenyl]-3-yl)methoxy)benzyl)-D-serine at 9 mg/kg, iv measured upto 24 hrs by LC-MS/MS analysis; format: ADME, organism-based; conditions: in vivo
[16] = Prodrug conversion in C57BL/6 mouse assessed as AUC (0 to t) of (2-(benzo[c][1,2,5]oxadiazol-5-ylmethoxy)-5-chloro-4-((2-fluoro-3'-(3-(4-hydroxypiperidin-1-yl)propoxy)-[1,1'-biphenyl]-3-yl)methoxy)benzyl)-D-serine at 10 mg/kg, po measured upto 24 hrs by LC-MS/MS analysis; format: ADME, organism-based; conditions: in vivo
CT26 [17] = assay: Antitumor activity against mouse CT26 cells implanted in BALB/c mouse assessed as increase in INF-gamma level at 25 mg/kg, ip measured for 20 days; format: functional, organism-based; conditions: time 20.0 day
MC-38 [18] = assay: Antitumor activity against mouse MC38 cells implanted in po dosed C57BL/6J mouse assessed as reduction in tumor growth; format: functional, organism-based; conditions: dose 5-25 mg/kg
[19] = Prodrug conversion in C57BL/6 mouse assessed as clearance of (2-(benzo[c][1,2,5]oxadiazol-5-ylmethoxy)-5-chloro-4-((2-fluoro-3'-(3-(4-hydroxypiperidin-1-yl)propoxy)-[1,1'-biphenyl]-3-yl)methoxy)benzyl)-D-serine at 2 mg/kg, iv measured upto 24 hrs by LC-MS/MS analysis; format: ADME, organism-based; conditions: in vivo
[20] = Prodrug conversion in Sprague-Dawley rat assessed as AUC (0 to t) of (2-(benzo[c][1,2,5]oxadiazol-5-ylmethoxy)-5-chloro-4-((2-fluoro-3'-(3-(4-hydroxypiperidin-1-yl)propoxy)-[1,1'-biphenyl]-3-yl)methoxy)benzyl)-D-serine at 45 mg/kg, po measured upto 24 hrs by LC-MS/MS analysis; format: ADME, organism-based; conditions: in vivo
[21] = Prodrug conversion in C57BL/6 mouse assessed as oral bioavailability of (2-(benzo[c][1,2,5]oxadiazol-5-ylmethoxy)-5-chloro-4-((2-fluoro-3'-(3-(4-hydroxypiperidin-1-yl)propoxy)-[1,1'-biphenyl]-3-yl)methoxy)benzyl)-D-serine at 10 mg/kg measured upto 24 hrs by LC-MS/MS analysis; format: ADME, organism-based; conditions: in vivo
[22] = Prodrug conversion in C57BL/6 mouse assessed as Cmax of (2-(benzo[c][1,2,5]oxadiazol-5-ylmethoxy)-5-chloro-4-((2-fluoro-3'-(3-(4-hydroxypiperidin-1-yl)propoxy)-[1,1'-biphenyl]-3-yl)methoxy)benzyl)-D-serine at 10 mg/kg, po measured upto 24 hrs by LC-MS/MS analysis; format: ADME, organism-based; conditions: in vivo
[23] = Prodrug conversion in Sprague-Dawley rat assessed as Cmax of (2-(benzo[c][1,2,5]oxadiazol-5-ylmethoxy)-5-chloro-4-((2-fluoro-3'-(3-(4-hydroxypiperidin-1-yl)propoxy)-[1,1'-biphenyl]-3-yl)methoxy)benzyl)-D-serine at 9 mg/kg, iv measured upto 24 hrs by LC-MS/MS analysis; format: ADME, organism-based; conditions: in vivo
[24] = Prodrug conversion in Sprague-Dawley rat assessed as Tmax of (2-(benzo[c][1,2,5]oxadiazol-5-ylmethoxy)-5-chloro-4-((2-fluoro-3'-(3-(4-hydroxypiperidin-1-yl)propoxy)-[1,1'-biphenyl]-3-yl)methoxy)benzyl)-D-serine at 45 mg/kg, po measured upto 24 hrs by LC-MS/MS analysis; format: ADME, organism-based; conditions: in vivo

Work on `CCOC(=O)[C@@H](CO)NCc1cc(Cl)c(OCc2cccc(-c3cccc(OCCCN4CCC(O)CC4)c3)c2F)cc1OCc1ccc2nonc2c1.Cl.Cl` yielded a Cmax [1] of 872.3 ng/mL, an inhibition in vivo at 25 mg/kg (CT26 [2]) of 54.8% and a logD [3] of 1.59. For the same molecule, the Activity [4] was “Non-Toxic”, the Activity (CT26 [5]) was 7.2% and the Activity (CT26 [6]) was “Active”. The inhibition in vivo at 25 mg/kg (MC-38 [7]) was 73.6%, the t1/2 [8] was 1.6 h and the Activity (MC-38 [9]) was “inactive”. The CL [10] was 23.77 mL/min/kg, the Activity (CT26 [11]) was “inactive” and the Tmax [12] was 0.7 h. It also gave a t1/2 [13] of 1.7 h, an F [14] of 3.4% and a t1/2 [15] of 7.9 h. For the same molecule, the AUCt [16] was 315.6 ng·h/mL, the Activity (CT26 [17]) was “Active” and the Activity (MC-38 [18]) was “Dose-Dependent Effect”. For the same molecule, the CL [19] was 61.845 mL/min/kg, the AUCt [20] was 405.6 ng·h/mL and the F [21] was 11.5%. For the same molecule, the Cmax [22] was 255.7 ng/mL, the Cmax [23] was 3760.7 ng/mL and the Tmax [24] was 4 h.
